{SH} = thiol group (3'-OH replaced by SH), used for disulfide linkage to a drug
Assays:
[1] = system: AGTR1-positive breast cancer cell line (MCF7-AGTR1); test: Apoptosis rate (sub-G1%) by PI DNA content flow cytometry, AGTR1-positive cells; format: cell-based, human; settings: 10 nM, 48 hr
Protocol: (§1) (1) The AGTR1-positive breast cancer cell line (MCF7-AGTR1) and the AGTR1-negative breast cancer cell line (BT474) were treated with a control (DMSO), DM1, Aptamer, and Aptamer-DM1 at a concentration of 10 nM for 48 hr, after which the cells were acquired and fixed with 95% ethanol containing 0.5% Tween-20 for 24 hr and cultured for 30 min with propidium iodide (PI, 50 μg/ml) and RNase (50 μg/ml). Thereafter, the apoptosis rate (sub-G1%) of cancer cells was measured through DNA content analysis using flow cytometry.
(§2) (2) Typically, the cell cycle includes, depending on the amount of DNA in cells, G1 (cell growth phase), S (cell replication phase), and G2/M (cell mitotic phase). […] The results of apoptosis are represented by the percentage of sub-G1 in the cell cycle.

[2] = system: AGTR1-negative breast cancer cell line (BT474); test: Apoptosis rate (sub-G1%) by PI DNA content flow cytometry, AGTR1-negative cells; format: cell-based, human; settings: 10 nM, 48 hr
Protocol: as §1, §2

[3] = system: AGTR1-negative breast cancer BT474 cell line; test: p-His3 (mitotic arrest marker) ICC/confocal in co-culture, AGTR1-negative cells; format: cell-based, human; settings: 10 nM, 24 hr; co-culture 1:1 with MCF7-AGTR1; HER2-expressed cells = BT474
Protocol: (§3) (1) As produced in Example 1, the AGTR1-positive breast cancer MCF7 cell line (MCF7-AGTR1) and the AGTR1-negative breast cancer BT474 cell line (typically, MCF7 is a HER2-negative breast cancer cell line and BT474 is a HER2-positive breast cancer cell line) were co-cultured at a ratio of 1:1, and HER2 and a mitotic arrest marker, namely phospho-Histone H3 (p-[…]), were stained with ICC, the nuclei of which were stained with DAPI, and were then treated with a control (DMSO), DM1, and Aptamer-DM1 at a concentration of 10 nM for 24 hr. Thereafter, the nuclei (blue), p-[…] (green), and HER2 (red) were imaged using a confocal microscope. The number of cells in which p-[…] was detected was quantified based on whether or not AGTR1 was expressed. During the staining procedure, the MCF7-AGTR1 and BT474 cells cultured on 8-well chamber slides were fixed with 4% paraformaldehyde, washed with PBS, and cultured for 10 min with 0.2% Triton X-100. Thereafter, the cells were cultured overnight at 4° C. with primary antibodies in an antibody dilution buffer and then cultured at room temperature for 2 hr with fluorescence-conjugated secondary antibodies. Thereafter, the cells were mounted on ProLong Gold Antifade Reagent containing DAPI (4',6'-diamidine-2'-phenylindole dihydrochloride).

[4] = system: AGTR1-positive breast cancer MCF7 cell line (MCF7-AGTR1); test: p-His3 (mitotic arrest marker) ICC/confocal in co-culture, AGTR1-positive cells; format: cell-based, human; settings: 10 nM, 24 hr; co-culture 1:1 with BT474; HER2-not-expressed cells = MCF7-AGTR1
Protocol: as §3

[5] = system: AGTR1-overexpressed SK-BR-3; test: Confocal imaging of Cy3-coupled aptamers binding to / internalizing in AGTR1-positive cells; format: cell-based, human; settings: 500 nM Cy3-coupled aptamer, 10^7 cells, room temperature; compared among SEQ ID NOS:1 to 6
Protocol: 1) 100 μl (10^7 cells) of target cells, namely AGTR1-overexpressed SK-BR-3, and 100 μl of 500 nM aptamer were reacted at room temperature and imaged using a confocal microscope. The aptamers have respective base sequences of SEQ ID NOS:1 to 6, the end of each of which is coupled with a fluorescence dye Cy3.

MCF7-AGTR1 cancer cells = test: Tumor volume in breast cancer disease animal model; format: in vivo, BALB/c nude mice; settings: 0.75 mg/kg intraperitoneally three times a week, measured for 3 weeks
Protocol: (1) Starting from the 4th day after MCF7-AGTR1 cancer cells (3×10^6 cells) were inoculated into the fourth mammary fat pads of immunodeficient 6-week-old female BALB/c nude mice, Aptamer (0.75 mg/kg) and Aptamer-DM1 (0.5 mg/kg, 0.75 mg/kg) were intraperitoneally administered three times a week. Then, the tumor volume was measured for 3 weeks. The body weights of mice were measured for 3 weeks. The tumor volume (V) was measured using a caliper and calculated according to V=(length×width^2)/2. In a Terminal deoxynucleotidyl transferase dUTP Nick End Labeling (TUNEL) assay, the tumors were removed from the mice, fixed in 10% neutral buffered formalin, and embedded in paraffin. The 4 μm thick tissue section was mounted on a positively charged glass slide, deparaffinized with xylene, and […] through a graded alcohol series. After antigen retrieval, the above tissue section was boiled in a citric acid buffer (pH 6.0) and immunofluorescence was performed. In situ TUNEL was performed on the above tissue section using a TUNEL kit (Roche Applied Sciences, Penzberg, GER), and the images thereof were obtained using a confocal scanning microscope.

Compound | apoptosis rate (sub-G1%) (FIG. 6) [1] | apoptosis rate (sub-G1%) (FIG. 6) [2] | expression of p-His3 (confocal, FIG. 4) [3] | expression of p-His3 (confocal, FIG. 4) [4] | internalization / fluorescence intensity (confocal, FIG. 3) [5] | growth of tumors (tumor volume, FIG. 7) (MCF7-AGTR1 cancer cells)
COc1cc2cc(c1Cl)N(C)C(=O)C[C@H](OC(=O)[C@H](C)N(C)C(C)=O)[C@]1(C)O[C@H]1[C@H](C)[C@@H]1C[C@@](O)(NC(=O)O1)[C@H](OC)/C=C/C=C(\C)C2 [DM1, maytansine] | relatively high | relatively high | observed regardless of whether HER2 was expressed or not | observed regardless of whether HER2 was expressed or not | – | –
SEQ ID NO:4: ssDNA aptamer AAGTCGTCTTTGCCAAATACCGGTCTGTCGGTGGGTATTG; Cy3-coupled in the confocal test (DNA, backbone not given here; further chemistry not fully specified) | – | – | – | – | strongest fluorescence intensity | –
Aptamer: DNA aptamer 5'-AAGTCGTCTTTGCCAAATACCGGTCTGTCGGTGGGTATTG-3' (SEQ ID NO:4) with thiol group introduced at the 3' terminus (DNA, 3' {SH}, backbone not given here) | remarkably low | remarkably low | – | – | – | partially inhibited
